This is an account of results in patent US20240148728A1, “NOVEL METHOD TO BLOCK IN[…] DEATH AND IL-1BETA SECRETION CAUSED BY […] UV I[…] GENETIC AND CHEMICAL INHIBITORS OF ZAKA AND THE NLRP1 INFLAMMASOME” (priority 2021, published 2024).

Entries after “also recorded” stand apart in the source; their conditions may differ.

One test relates to NLRP1^DR. Nature of the test: NLRP1 PYD-DR1 / NLRP1^DR phosphorylation (GFP fusion, immunoblot, PhosTag SDS-PAGE) in N-TERT cells. Format: cell-based, human. Particulars: NLRP1 KO N-TERT cells expressing GFP-tagged NLRP1^DR; various kinase inhibitors. The source says: (§1) The following antibodies were used in this study: cleaved PARP1 (Abclonal, #WH162766), Cleaved CASP3 (Abclonal, #WH154646), Full length GSDMD-FL (Abcam, #ab210070), IL1β p17 specific (CST, #83186S), CARD8 (Abcam, CARD8-NT: ab19485, CARD8-CT: ab241186), DPP9 (Abcam, ab226334), c-Myc (Santa Cruz Biotechnology, #sc-40), HA tag (Santa Cruz Biotechnology, #sc-805), GAPDH (Santa Cruz Biotechnology, #sc-47724), ASC (Adipogen, #AL-177), CASP1 (Santa Cruz Biotechnology, #sc-622), 11_1B (R&D systems, #AF-201), FLAG (SigmaAldrich, #F3165), NLRP1 (R&D systems, #AF6788), IL18 (Abcam ab207324), cleaved GSDMD-NT (Asp275) (Cell Signaling Technology, #36425), RPL31 (Abclonal, #WH162766), CASP7 (Abcam, ab255818), CASP8 (Abcam, ab32397), cleaved CASP3 (Cell Signaling Technology, #9664). All horseradish peroxidase (HRP)— conjugated secondary antibodies were purchased from Jackson Immunoresearch (goat anti-mouse IgG: 115-035-166; goat anti-rabbit IgG: 111-035-144; and donkey anti-goat IgG: 705-005-147). Blue-Native PAGE was carried out using the Native-PAGE system (ThermoFisher) with 10-20 μg of total lysate. For SDS-PAGE using whole cell lysates, cells were resuspended in tris-buffered saline 1% NP-40 with protease inhibitors (Thermo Scientific, #78430). Protein concentration was determined using the Bradford assay (Thermo Scientific, #23200) and […] of protein loaded, a part from cleaved GSDMD-NT visualisation where […] of protein was used. All primary antibodies were used at 250 ng/ml. Visualisation of ASC oligomerization was previously described (Robinson et al., 2020). For analysis of IL1β and IL-18 cleavage in the media by immunoblotting, samples were concentrated using filtered centrifugation (Merck, Amicon Ultra, #UFC5003BIK). Protein samples were run using immunoblotting, and then visualized using a ChemiDoc Imaging system (Bio-Rad). PhosTag SDS-PAGE was carried out using homemade 10% SDS-PAGE gel, with addition of Phos-tag Acrylamide (Wako Chemicals, AAL-107) to a final concentration of 30 μM and manganese chloride(II) (Sigma-Aldrich, #63535) to 60 μM.
Cells were directly harvested using Laemmli buffer, lysed with an ultrasonicator, and loaded into the Phos-tag gel to run. Once the run was completed, the polyacrylamide gel was washed in transfer buffer with 10 mM EDTA twice, subsequently washed without EDTA twice, blotted onto 0.45 μm PVDF membranes (Bio-rad), blocked with 3% milk, and incubated with primary and corresponding secondary antibodies.

A further test concerns the target ZAKα (Homo sapiens, UniProt Q9NYL2). Particulars: cited from earlier work.
The subject of a further test is human skin explants. Nature of the test: UVB-induced IL1β in human skin explants. Particulars: UVB 100 or 250 mJ/cm^2, harvest 24 hours later. The text has this: Waste surgical skin tissues from abdomen and breast were collected with appropriate informed consent of the patients and sent to the Asian Skin Biobank (ASB worldwidewebdota-stardotedudotsg/sris/technology-platforms/asian-skin-biobank) at the Skin Research Institute of Singapore (SRIS) (under A*STAR IRB 2020-209). Fresh skin tissue was cleaned in solutions of HBSS with decreasing concentrations of Penicillin, Streptomycin and Fungizone. Then 8-mm skin biopsies were punched and submerged in culture media. Skin explants were immediately irradiated with UVB or treated with VbP.
For UVA and UVB irradiation experiments, cells were seeded 24 hours prior to irradiation, and washed once in phosphate buffered saline pH 7.4 before being exposed to indicated dose of irradiation using a BIO-SUN microprocessor controlled, cooled UV irradiation system (BIO-SUN, Vilber). After exposure, PBS was replaced by keratinocyte medium and cells were incubated for indicated time.
To measure secreted cytokine and chemokine levels a human IL1β enzyme linked immunosorbent assay (ELISA) kit (BD, #557953), human IL-18 ELISA kit (MBL, #7620) or an Immune Monitoring 65-Plex Human ProcartaPlex Panel (EPX650-10065-901) were used according to manufacturer's protocols. […]

Test [1] relates to immortalized keratinocytes (N-TERT). The test can be described thus: Pyroptosis / apoptosis in N-TERT keratinocytes (morphology, ASC-GFP, PI, Annexin V, immunoblot). Type of test: cell-based, human. The note with it: for mode of cell death (apoptosis / pyroptosis): Annexin V staining and PI inclusion, immunoblot markers.
From the text: as §1
N-TERT-ASC-GFP cells were seeded at a cell density of 3000 cells/well of a 96 black well plate (PerkinElmer, CellCarrier-96 Ultra, #6055300). The next morning cells were treated with chemicals for 6 h or treated in the evening for 24 h before staining. 1 hour before observing the cells on the microscope the cells were stained with 1 μg/ml dilution of propidium iodide (PI, Abcam #ab14083), 10 ng/ml dilution of Hoechst 33342 (Life Technologies, #H21492) or stained with Annexin V Alexa Flour 647 (Life technologies, #A23204) according to the manufacturer's protocol. Stained cells were then imaged on a high content screening microscope (Perkin Elmer Operetta CLS imaging system). Images were then stored and analyzed using the Harmony software (Version 6). Fluorescent and brightfield images acquired on the Operetta high content screening microscope were further analyzed using a scoring system to categorize the percentages of live, apoptotic and pyroptotic cells. For 3 fields of view per treatment the number of live cells per field was counted from the merge of the brightfield and ASC-GFP channels. Only cells which contained ASC-GFP throughout the cytoplasm and nucleus were classed as “live”. The number of pyroptotic cells was calculated using the merge of the brightfield and ASC-GFP channels. Only the cells with GFP specks were classed as “pyroptotic”. The number of apoptotic cells was calculated using the merge of the brightfield, ASC-GFP and Annexin V channels. Cells that were stained positive for Annexin V but without a GFP speck were classified as “apoptotic”. Images of ASC-GFP specks were acquired in 3 random fields in 4′,6-diaminidino-2-phenylindole (DAPI, 358 nm/461) and GFP (469 nm/525 nm) channels using the EVOS microscope (FL Auto M5000, #AM F5000) according to the manufacturer's protocol. […]

The next test relates to 3D organotypic skin. The test can be described thus: Secreted cytokines/chemokines from 3D organotypic skin (ELISA, Luminex). Format: cell-based, human. The procedure: Organotypic cultures were generated by adapting a previously described protocol (Arnette et al., 2016). Briefly, 2 ml of collagen I (4 mg/ml; Corning, #354249) mixed with 7.5×10^5 human fibroblasts were allowed to polymerize over 1-m1 acellular collagen I in 6-well culture inserts (Falcon, #353102) placed in 6-well deep well plate (Falcon, #355467). After 24 hours, 1×10^6 primary human keratinocytes were seeded into the inserts and kept submerged in a 3:1 DMEM (Hyclone, #SH30243.01) and F12 (Gibco, #31765035) mixture with 10% FBS (Hyclone, #SV30160.03), 100 U/ml penicillin-streptomycin (Gibco, #15140122), 10 μM Y-27632 (Tocris, #1254), 10 ng/ml EGF (Sigma-Aldrich, #E9644), 1×10^−10 M cholera toxin (Enzo, #BML-G117-001), 0.4 μg/ml hydrocortisone (Sigma-Aldrich, #H0888), 0.0243 mg/ml adenine (Sigma-Aldrich, #A2786), 5 μg/ml insulin (Sigma-Aldrich, #12643), 5 μg/ml transferrin (Sigma-Aldrich, #T2036) and 2×10^−9 M 3,3′,5′-triiodo-L-thyronine (Sigma-Aldrich, #T6397). After another 24 hours, the organotypic cultures were then raised at the air-liquid interface and fed with the submerged media (without Y-27632 and EGF) below the insert to induce epidermal differentiation. The air-lifting medium was replaced every 2 days and treatments began 10-14 days after airlifting. Organotypic cultures were then harvested 24 hours after treatment and formalin fixed for 24 hours. […]
On the technique in general: ELISA stands for enzyme-linked immunosorbent assay.

In a further test the test system is N-TERT cells. The test can be described thus: Secreted IL1β / inflammasome activation in N-TERT cells. Type of test: cell-based, human. The note with it: ZAKα KO N-TERT cells. The protocol: To measure secreted cytokine and chemokine levels a human IL1β enzyme linked immunosorbent assay (ELISA) kit (BD, #557953), human IL-18 ELISA kit (MBL, #7620) or an Immune Monitoring 65-Plex Human ProcartaPlex Panel (EPX650-10065-901) were used according to manufacturer's protocols. Further analysis of Luminex or ELISA profiling of samples was performed using heatmap and PCA analysis on Clustervis (biitdotcsdotutdotee/clustvis/) [Somani et al., Proceeding of SSIC (2019)].
as §1

For test [2], the system named is 3D human organotypic skin. Nature of the test: 3D organotypic skin histology and cleaved GSDMD-NT immunostaining. Type of test: cell-based. The note with it: immunostaining. The procedure:
Organotypic cultures were generated by adapting a previously described protocol (Arnette et al., 2016). Briefly, 2 ml of collagen I (4 mg/ml; Corning, #354249) mixed with 7.5×10^5 human fibroblasts were allowed to polymerize over 1-m1 acellular collagen I in 6-well culture inserts (Falcon, #353102) placed in 6-well deep well plate (Falcon, #355467). After 24 hours, 1×10^6 primary human keratinocytes were seeded into the inserts and kept submerged in a 3:1 DMEM (Hyclone, #SH30243.01) and F12 (Gibco, #31765035) mixture with 10% FBS (Hyclone, #SV30160.03), 100 U/ml penicillin-streptomycin (Gibco, #15140122), 10 μM Y-27632 (Tocris, #1254), 10 ng/ml EGF (Sigma-Aldrich, #E9644), 1×10^−10 M cholera toxin (Enzo, #BML-G117-001), 0.4 μg/ml hydrocortisone (Sigma-Aldrich, #H0888), 0.0243 mg/ml adenine (Sigma-Aldrich, #A2786), 5 μg/ml insulin (Sigma-Aldrich, #12643), 5 μg/ml transferrin (Sigma-Aldrich, #T2036) and 2×10^−9 M 3,3′,5′-triiodo-L-thyronine (Sigma-Aldrich, #T6397). After another 24 hours, the organotypic cultures were then raised at the air-liquid interface and fed with the submerged media (without Y-27632 and EGF) below the insert to induce epidermal differentiation. The air-lifting medium was replaced every 2 days and treatments began 10-14 days after airlifting. Organotypic cultures were then harvested 24 hours after treatment and formalin fixed for 24 hours. Fixed tissues were then embedded into wax for histological purposes.
For immunohistochemistry staining of cleaved N-terminal GSDMD a previously established protocol with modifications was used [Wang et al., Cell 180:941-955.e20 (2020)]. Briefly, 5 μm formalin fixed and paraffin embedded sections were deparaffinized and rehydrated through a series of alcohol. The sections were then rehydrated in an antigen retrieval buffer (Dako, Tris-EDTA, pH 9). Sections were then blocked in goat serum for 20 mins at RT before primary antibody incubated overnight at 4° C. Immunostaining was visualised using DAB substrate and chromogen detection kit (Dako, #K3468). Sections were then counterstained with Myer's Hematoxylin.

In a further test the test system is ASC. Nature of the test: Phosphorylation of inflammasome adaptor ASC. Particulars: data not shown. Format: cell-based, human.
Another test deals with HB-EGF. The test can be described thus: HB-EGF expression by RNAseq after TNFα priming. Type of test: cell-based, human. The note with it: FKPM by RNAseq. The procedure: Library preparation, QC and high-throughput sequencing were provided by Macrogen, Singapore. RNA isolation and library preparation was carried out as previously described [Robinson et al., Science (2020)].

ZAKα, sequence (Q9NYL2 whole entry): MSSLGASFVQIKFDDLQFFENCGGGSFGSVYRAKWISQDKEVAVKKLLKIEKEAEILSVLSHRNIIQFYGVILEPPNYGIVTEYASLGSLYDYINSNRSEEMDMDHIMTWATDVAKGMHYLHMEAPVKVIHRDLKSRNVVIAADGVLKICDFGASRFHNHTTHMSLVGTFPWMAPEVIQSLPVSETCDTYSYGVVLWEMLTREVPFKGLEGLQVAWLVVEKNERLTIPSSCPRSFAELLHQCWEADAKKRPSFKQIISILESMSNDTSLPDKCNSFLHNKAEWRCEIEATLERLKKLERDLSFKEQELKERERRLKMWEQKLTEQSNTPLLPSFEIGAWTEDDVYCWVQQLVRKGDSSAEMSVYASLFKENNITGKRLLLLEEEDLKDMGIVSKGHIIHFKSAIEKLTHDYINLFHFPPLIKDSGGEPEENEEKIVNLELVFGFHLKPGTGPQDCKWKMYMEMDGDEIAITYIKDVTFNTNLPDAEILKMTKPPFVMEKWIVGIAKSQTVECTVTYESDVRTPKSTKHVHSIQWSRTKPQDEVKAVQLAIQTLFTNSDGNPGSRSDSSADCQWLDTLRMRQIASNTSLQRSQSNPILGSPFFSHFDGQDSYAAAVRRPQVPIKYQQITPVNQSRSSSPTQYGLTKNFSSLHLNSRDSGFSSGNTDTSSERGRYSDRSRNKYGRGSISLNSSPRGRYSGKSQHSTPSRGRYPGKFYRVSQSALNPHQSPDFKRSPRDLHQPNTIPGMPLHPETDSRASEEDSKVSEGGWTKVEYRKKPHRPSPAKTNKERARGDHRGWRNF

Turning to `COc1cc(O)c2c(c1)/C=C/C[C@H](O)[C@H](O)C(=O)/C=C\C[C@H](C)OC2=O` [5-Z-7-oxozeanol, 5Z-7-Oxozeaenol], the “effect on ANS-triggered NLRP1 hyperphosphorylation” value in the test on NLRP1^DR is recorded as “can effectively block ANS-triggered NLRP1 hyperphosphorylation”. Moreover, the “potency against ZAKα compared with TAK1” value at ZAKα is “almost the same potency as its reported target TAK1”.

In the case of `C=CC(=O)N1CCCC(c2ccnc(Nc3cc(C(=O)Nc4cc(-n5cnc(C)c5)cc(C(F)(F)F)c4)ccc3C)n2)C1` (stereo not drawn) [M443, 4-methyl-N-[3-(4-methylimidazol-1-yl)-5-(trifluoromethyl)phenyl]-3-[[4-(1-prop-2-enoylpiperidin-3-yl)pyrimidin-2-yl]amino]benzamide], the “effect on ANS-triggered NLRP1 hyperphosphorylation” value with NLRP1^DR was “can effectively block ANS-triggered NLRP1 hyperphosphorylation”. Moreover, the “effect on UVB-induced IL1β / NLRP1 activation” value with human skin explants is “reduction in UVB-induced IL1β; also recorded: effective at blocking UVB induced NLRP1 activation and IL1beta release”.

As for `COc1ccc(C[C@H](N)C(=O)N[C@H]2[C@@H](O)[C@H](n3cnc4c(N(C)C)ncnc43)O[C@@H]2CO)cc1` [PURO, Puromycin], the “mode of cell death (apoptosis / pyroptosis)” value in test [1] is on record as “kills cells exclusively via apoptosis”. For the same compound, in the test with 3D organotypic skin, the “chemokine/cytokine profile versus untreated” value was “very few cytokines/chemokines differed”.

Take `CC(C)[C@H](N)C(=O)N1CCC[C@H]1B(O)O` [VbP, Talabostat]: the “mode of cell death (apoptosis / pyroptosis)” value in test [1] is “exclusively triggers pyroptosis”. Besides, the “time to induce detectable pyroptosis” value in test [1] (wild-type N-TERT cells, PI positive cells) is “at least 5 hours”. In the test on N-TERT cells, the “IL1β secretion and pyroptotic death in ZAKα KO cells” value is “remained fully sensitive”. The “cleaved GSDMD N-terminal fragment at the cell membrane” value in [2] is reported as “prominently enriched at the cell membrane”. Besides, the “phosphorylation of ASC” value with ASC is given as “not phosphorylated”.

On to TNFα, for which the “increased expression of DT entry receptor HB-EGF” value in the test with HB-EGF is given as greater than 5 fold.
